# Data published in PMC9518264, “Design and synthesis of novel quinazolinone-based derivatives as EGFR inhibitors with antitumor activity” (Journal of Enzyme Inhibition and Medicinal Chemistry, 2022).
# How the values were obtained:
# OVCAR-3 = experiment: NCI 60 cell line antiproliferative screening (SRB), Ovarian cancer
# [1] = system: panel of 60 tumour cell lines; experiment: NCI 60 cell line antiproliferative screening (SRB), whole panel or subpanels (means, ranges, words); format: cell-based, human
# NCI-H322M = experiment: cells; format: cell-based
# MDA-MB-435 = experiment: cells; format: cell-based
# SW-620 = experiment: cells; format: cell-based
# SNB-19 = experiment: cells; format: cell-based
# A549/ATCC = experiment: cells; format: cell-based
# NCI-H226 = experiment: cells; format: cell-based
# NCI-H522 = experiment: cells; format: cell-based
# SF-295 = experiment: cells; format: cell-based
# HOP-92 = experiment: cells; format: cell-based
# SF-268 = experiment: cells; format: cell-based
# T-47D = experiment: cells; format: cell-based
# UO-31 = experiment: cells; format: cell-based
# EKVX = experiment: cells; format: cell-based
# SR = experiment: cells; format: cell-based
# TK-10 = experiment: cells; format: cell-based
# HCC-2998 = experiment: cells; format: cell-based
# HCT-116 = experiment: cells; format: cell-based
# 786-0 = experiment: cells; format: cell-based
# IGROV1 = experiment: cells; format: cell-based
# KM12 = experiment: cells; format: cell-based
# SN12C = experiment: cells; format: cell-based
# [2] = Homo sapiens, 5 doses, read-out: LC50 (the source's name)
# [3] = Homo sapiens, read-out: growth inhibition % (GI%)
smiles,measurement,setting,value
"O=C(CSc1nc2ccccc2c(=O)n1-c1ccc(Cl)cc1)NN=Cc1ccc(Oc2ccc(Cl)cc2)cc1 [6d, N'-(4–(4-chlorophenoxy)benzylidene)-2-((3–(4-chlorophenyl)-4-oxo-3,4-dihydroquinazolin-2-yl)thio)acetohydrazide]",GI50,"OVCAR-3; Homo sapiens, OVCAR-3",2.75 µM
same,CC50,"OVCAR-3; Homo sapiens, OVCAR-3, read-out: LC50",38.9 µM
same,inhibition at 10 µM,"OVCAR-3; Homo sapiens, OVCAR-3, read-out: growth inhibition % (GI%)",< 15%
same,TGI,"OVCAR-3; OVCAR-3, 5 doses",9.55 µM
same,GI50,"[1]; Homo sapiens, 60 cell, read-out: GI50 range against most of the tested cancer cell lines",1.29 to 5.97 µM
same,inhibition at 10 µM,"[1]; Homo sapiens, 60 cell, read-out: Mean growth inhibition % (mean GI%)",80.2%
same,TGI range against the rest of cell lines,"[1]; five dose concentrations, good to moderate cytostatic activity",11.1 to 48.5 µM
same,TGI range against 40 cancer cell lines,"[1]; five dose concentrations, high cytostatic activity",2.59 to 9.55 µM
same,TGI,NCI-H322M; 5 doses,15.0 µM
same,GI50,NCI-H322M; Homo sapiens,3.02 µM
same,CC50,NCI-H322M; [2],90.8 µM
same,inhibition at 10 µM,NCI-H322M; [3],< 15%
same,GI50,"MDA-MB-435; Homo sapiens, MDA-MB-435",1.93 µM
same,inhibition at 10 µM,"MDA-MB-435; Homo sapiens, MDA-MB-435, read-out: growth inhibition % (GI%)",75%
same,CC50,"MDA-MB-435; Homo sapiens, MDA-MB-435, 5 doses, read-out: LC50 (the source's name)",13 µM
same,TGI,"MDA-MB-435; MDA-MB-435, 5 doses",4.56 µM
same,GI50,"SW-620; Homo sapiens, SW-620",1.81 µM
same,inhibition at 10 µM,"SW-620; Homo sapiens, SW-620, read-out: growth inhibition % (GI%)",97.4%
same,CC50,"SW-620; Homo sapiens, SW-620, 5 doses, read-out: LC50 (the source's name)",42.4 µM
same,TGI,"SW-620; SW-620, 5 doses",7.84 µM
same,GI50,"SNB-19; Homo sapiens, SNB-19",3.36 µM
same,inhibition at 10 µM,"SNB-19; Homo sapiens, SNB-19, read-out: growth inhibition % (GI%)",71.5%
same,CC50,"SNB-19; Homo sapiens, SNB-19, 5 doses, read-out: LC50 (the source's name)",53.2 µM
same,TGI,"SNB-19; SNB-19, 5 doses",12.7 µM
same,TGI,"A549/ATCC; A549/ATCC, 5 doses",14.0 µM
same,GI50,"A549/ATCC; Homo sapiens, A549",3.25 µM
same,inhibition at 10 µM,"A549/ATCC; Homo sapiens, A549, read-out: growth inhibition % (GI%)",83.5%
same,"LC50 (lethal concentration, 50% cell kill)","A549/ATCC; Homo sapiens, A549/ATCC, 5 doses",83.3 µM
same,GI50,"NCI-H226; Homo sapiens, NCI-H226",2.46 µM
same,inhibition at 10 µM,"NCI-H226; Homo sapiens, NCI-H226, read-out: growth inhibition % (GI%)",24.4%
same,LC50 (NCI-60 50% lethal concentration),"NCI-H226; Homo sapiens, NCI-H226, 5 doses",33.2 µM
same,TGI,"NCI-H226; NCI-H226, 5 doses",6.59 µM
same,GI50,"NCI-H522; Homo sapiens, NCI-H522",2.34 µM
same,inhibition at 10 µM,"NCI-H522; Homo sapiens, NCI-H522, read-out: growth inhibition % (GI%)",79.3%
same,CC50,"NCI-H522; Homo sapiens, NCI-H522, 5 doses, read-out: LC50 (the source's name)",42.6 µM
same,TGI,"NCI-H522; NCI-H522, 5 doses",8.31 µM
same,GI50,"SF-295; Homo sapiens, SF-295",3.61 µM
same,inhibition at 10 µM,"SF-295; Homo sapiens, SF-295, read-out: growth inhibition % (GI%)",35.3%
same,CC50,"SF-295; Homo sapiens, SF-295, 5 doses, read-out: LC50 (the source's name)",36.4 µM
same,TGI,"SF-295; SF-295, 5 doses",13.3 µM
same,TGI,"HOP-92; HOP-92, 5 doses",5.62 µM
same,GI50,"HOP-92; Homo sapiens, HOP-92",2.07 µM
same,inhibition at 10 µM,"HOP-92; Homo sapiens, HOP-92, read-out: growth inhibition % (GI%)",97.4%
same,LC50 (concentration killing 50% of cells),"HOP-92; Homo sapiens, HOP-92, 5 doses",22.8 µM
same,GI50,"SF-268; Homo sapiens, SF-268",3.85 µM
same,inhibition at 10 µM,"SF-268; Homo sapiens, SF-268, read-out: growth inhibition % (GI%)",44.2%
same,LC50,"SF-268; Homo sapiens, SF-268, 5 doses",> 100 µM
same,TGI,"SF-268; SF-268, 5 doses",23.9 µM
same,GI50,"T-47D; Homo sapiens, T47D",2.09 µM
same,inhibition at 10 µM,"T-47D; Homo sapiens, T47D, read-out: growth inhibition % (GI%)",69.9%
same,CC50,"T-47D; Homo sapiens, T47D, T-47D, 5 doses, read-out: LC50 (the source's name)",49.5 µM
same,TGI,"T-47D; T-47D, 5 doses",5.76 µM
same,GI50,"UO-31; Homo sapiens, UO-31",7.47 µM
same,inhibition at 10 µM,"UO-31; Homo sapiens, UO-31, read-out: growth inhibition % (GI%)",< 15%
same,CC50,"UO-31; Homo sapiens, UO-31, 5 doses, read-out: LC50 (the source's name)",47.1 µM
same,TGI,"UO-31; UO-31, 5 doses",21.1 µM
same,TGI,EKVX; 5 doses,13.9 µM
same,GI50,EKVX; Homo sapiens,3.1 µM
same,LC50,"EKVX; Homo sapiens, 5 doses",63.6 µM
same,inhibition at 10 µM,EKVX; [3],59.2%
same,TGI,SR; 5 doses,6.86 µM
same,GI50,SR; Homo sapiens,1.84 µM
same,CC50,SR; [2],31.9 µM
same,inhibition at 10 µM,SR; [3],67.1%
same,GI50,"TK-10; Homo sapiens, TK-10",5.97 µM
same,inhibition at 10 µM,"TK-10; Homo sapiens, TK-10, read-out: growth inhibition % (GI%)",60.3%
same,CC50,"TK-10; Homo sapiens, TK-10, 5 doses, read-out: LC50 (the source's name)",> 100 µM
same,TGI,"TK-10; TK-10, 5 doses",40.2 µM
same,TGI,"HCC-2998; HCC-2998, 5 doses",3.81 µM
same,GI50,"HCC-2998; Homo sapiens, HCC 2998",1.92 µM
same,inhibition at 10 µM,"HCC-2998; Homo sapiens, HCC 2998, read-out: growth inhibition % (GI%)",79.7%
same,LC50 (lethal concentration 50%),"HCC-2998; Homo sapiens, HCC-2998, 5 doses",7.57 µM
same,TGI,"HCT-116; HCT-116, 5 doses",3.74 µM
same,GI50,"HCT-116; Homo sapiens, HCT-116",1.55 µM
same,inhibition at 10 µM,"HCT-116; Homo sapiens, HCT-116, read-out: growth inhibition % (GI%)",> 100%
same,CC50,"HCT-116; Homo sapiens, HCT-116, 5 doses, read-out: LC50 (the source's name)",9.03 µM
same,TGI,"786-0; 786-0, 5 doses",6.41 µM
same,GI50,"786-0; Homo sapiens, 786-0",2.51 µM
same,inhibition at 10 µM,"786-0; Homo sapiens, 786-0, read-out: growth inhibition % (GI%)",> 100%
same,CC50,"786-0; Homo sapiens, 786-0, 5 doses, read-out: LC50 (the source's name)",26.5 µM
same,GI50,"IGROV1; Homo sapiens, IGROV-1",1.51 µM
same,inhibition at 10 µM,"IGROV1; Homo sapiens, IGROV-1, read-out: growth inhibition % (GI%)",79.4%
same,CC50,"IGROV1; Homo sapiens, IGROV-1, IGROV1, 5 doses, read-out: LC50 (the source's name)",7.12 µM
same,TGI,"IGROV1; IGROV1, 5 doses",3.28 µM
same,GI50,"KM12; Homo sapiens, KM12",2.04 µM
same,inhibition at 10 µM,"KM12; Homo sapiens, KM12, read-out: growth inhibition % (GI%)",82.6%
same,CC50,"KM12; Homo sapiens, KM12, 5 doses, read-out: LC50 (the source's name)",26.6 µM
same,TGI,"KM12; KM12, 5 doses",5.0 µM
same,TGI,SN12C; 5 doses,4.14 µM
same,GI50,SN12C; Homo sapiens,1.74 µM
same,CC50,SN12C; [2],9.84 µM
same,inhibition at 10 µM,SN12C; [3],54.8%
